Biological target: T1, human DP2 receptor (Homo sapiens, UniProt Q9Y5Y4)
T1 construct: expressed in transfected cells
T1 sequence (Q9Y5Y4 1-395): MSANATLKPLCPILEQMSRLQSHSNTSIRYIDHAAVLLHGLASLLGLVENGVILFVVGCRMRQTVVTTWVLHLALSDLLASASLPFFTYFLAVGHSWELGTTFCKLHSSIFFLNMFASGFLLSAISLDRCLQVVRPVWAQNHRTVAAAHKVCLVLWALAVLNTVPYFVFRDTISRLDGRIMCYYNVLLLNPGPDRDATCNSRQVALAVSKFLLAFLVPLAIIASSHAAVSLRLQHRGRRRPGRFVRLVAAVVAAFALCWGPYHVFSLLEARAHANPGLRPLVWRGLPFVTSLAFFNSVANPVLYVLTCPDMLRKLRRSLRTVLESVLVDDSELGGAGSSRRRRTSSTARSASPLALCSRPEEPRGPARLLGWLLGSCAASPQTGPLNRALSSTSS
Assay: DP2/CRTH2 binding assay (radioligand binding using [3H]PGD2)
Settings: [3H]PGD2, membranes of HEK293 cells stably expressing recombinant human DP2; read-out: hDP2 binding
Description: The ability of a compound to bind to the human DP2 receptor is assessed via a radioligand binding assay using [^3H]PGD2. HEK293 cells stably expressing recombinant human DP2 are resuspended in 10 mM Hepes, 7.4 containing 1 mM DTT, lysed and centrifuged at 75,000×g to pellet the membranes. The membranes are resuspended in 10 mM Hepes, 7.4 containing 1 mM DTT and 10% glycerol to approximately 5 mg protein/ml. Membranes (2-10 μg protein/well) are incubated in 96-well plates with 1 nM [^3H]PGD2 and test compound in Assay Buffer (50 mM Hepes, 10 mM MnCl2, 1 mM EDTA, plus or minus 0.2% human serum albumin, pH 7.4) for 60 minutes at room temperature. The reactions are terminated by rapid filtration through Whatman GF/C glass fibre filter plates. The filter plates were pre-soaked in 0.33% polythylenimine for 30 minutes at room temperature then washed in Wash Buffer (50 mM Hepes, 0.5 M NaCl pH 7.4) prior to harvesting. After harvesting, the filter plates are washed 3 times with 1 ml cold Wash Buffer then dried. Scintillant is then added to the plates and the radioactivity retained on the filters is determined on a Packard TopCount (Perkin Elmer). Specific binding is determined as total radioactive binding minus non-specific binding in the presence of 10 μM PGD2. IC50s were determined using GraphPad prism analysis of drug titration curves.

In the case of `COc1ccc(CC(=O)O)cc1-c1ccc(C(F)(F)F)cc1CN1CCOC1=O` [Compound 1-1, [6-Methoxy-2′-(2-oxo-oxazolidin-3-ylmethyl)-4′-trifluoromethyl-biphenyl-3-yl]-acetic acid], the IC50 is reported as < 300 nM.

`COc1ccc(-c2ccc(C(F)(F)F)cc2CN2CCOC2=O)cc1CC(=O)O` [Compound 1-2, [4-Methoxy-2′-(2-oxo-oxazolidin-3-ylmethyl)-4′-trifluoromethyl-biphenyl-3-yl]-acetic acid] was tested, and the IC50 was < 300 nM.

`COc1ccc(CC(=O)O)cc1-c1ccccc1CN1C(=O)O[C@H](c2ccccc2)[C@@H]1C` [Compound 1-3, [6-Methoxy-2′-((4S,5R)-4-methyl-2-oxo-5-phenyl-oxazolidin-3-ylmethyl)-biphenyl-3-yl]-acetic acid] was tested, and the IC50 was 300 to 1000 nM.

In the case of `COc1ccc(CC(=O)O)cc1-c1ccc(F)cc1CN1C(=O)O[C@H](c2ccccc2)[C@@H]1C` [Compound 1-4, [4′-Fluoro-6-methoxy-2′-((4S,5R)-4-methyl-2-oxo-5-phenyl-oxazolidin-3-ylmethyl)-biphenyl-3-yl]-acetic acid], the IC50 is reported as < 300 nM.

For `COc1ccc(-c2cc(CC(=O)O)ccc2OC)c(CN2C(=O)O[C@H](c3ccccc3)[C@@H]2C)c1` [Compound 1-5, [6,4′-Dimethoxy-2′-((4S,5R)-4-methyl-2-oxo-5-phenyl-oxazolidin-3-ylmethyl)-biphenyl-3-yl]-acetic acid], the IC50 was > 1000 nM.

In the case of `C[C@H]1[C@@H](c2ccccc2)OC(=O)N1Cc1cc(C(F)(F)F)ccc1-c1cccc(CC(=O)O)c1` [Compound 1-6, [2′-((4S,5R)-4-Methyl-2-oxo-5-phenyl-oxazolidin-3-ylmethyl)-4′-trifluoromethyl-biphenyl-3-yl]-acetic acid], the IC50 is reported as 300 to 1000 nM.

`C[C@H]1[C@@H](c2ccccc2)OC(=O)N1Cc1cc(C(F)(F)F)ccc1-c1ccc(F)c(CC(=O)O)c1` [Compound 1-7, [4-Fluoro-2′-((4S,5R)-4-methyl-2-oxo-5-phenyl-oxazolidin-3-ylmethyl)-4′-trifluoromethyl-biphenyl-3-yl]-acetic acid] was tested, and the IC50 was 300 to 1000 nM.

For `COc1ccc(-c2ccc(C(F)(F)F)cc2CN2C(=O)O[C@H](c3ccccc3)[C@@H]2C)cc1CC(=O)O` [Compound 1-8, [4-Methoxy-2′-((4S,5R)-4-methyl-2-oxo-5-phenyl-oxazolidin-3-ylmethyl)-4′-trifluoromethyl-biphenyl-3-yl]-acetic acid], the IC50 was < 300 nM.

`C[C@H]1[C@@H](c2ccccc2)OC(=O)N1Cc1cc(C(F)(F)F)ccc1-c1cc(CC(=O)O)ccc1F` [Compound 1-9, [6-Fluoro-2′-((4S,5R)-4-methyl-2-oxo-5-phenyl-oxazolidin-3-ylmethyl)-4′-trifluoromethyl-biphenyl-3-yl]-acetic acid] was tested, and the IC50 was < 300 nM.

For `COc1ccc(CC(=O)O)cc1-c1ccc(C(F)(F)F)cc1CN1C(=O)O[C@H](c2ccccc2)[C@@H]1C` [Compound 1-10, [6-Methoxy-2′-((4S,5R)-4-methyl-2-oxo-5-phenyl-oxazolidin-3-ylmethyl)-4′-trifluoromethyl-biphenyl-3-yl]-acetic acid], the IC50 was < 300 nM.

`COc1ccc(CC(=O)O)cc1-c1ccc(C(F)(F)F)cc1CN1C(=O)O[C@@H](c2ccccc2)[C@H]1C` [Compound 1-11, [6-Methoxy-2′-((4R,5S)-4-methyl-2-oxo-5-phenyl-oxazolidin-3-ylmethyl)-4′-trifluoromethyl-biphenyl-3-yl]-acetic acid] was tested, and the IC50 was > 1000 nM.

For `COc1ccc(C(C)C(=O)O)cc1-c1ccc(C(F)(F)F)cc1CN1C(=O)O[C@H](c2ccccc2)[C@@H]1C` (stereo partly drawn) [Compound 1-12, 2-[6-Methoxy-2′-((4S,5R)-4-methyl-2-oxo-5-phenyl-oxazolidin-3-ylmethyl)-4′-trifluoromethyl-biphenyl-3-yl]-propionic acid], the IC50 was < 300 nM.

For `COc1ccc(CC(=O)O)cc1-c1ccc(C(F)(F)F)cc1CN1C(=O)O[C@H](c2cc(C(F)(F)F)cc(C(F)(F)F)c2)[C@@H]1C` [Compound 1-13, {2′-[(4S,5R)-5-(3,5-Bis-trifluoromethyl-phenyl)-4-methyl-2-oxo-oxazolidin-3-ylmethyl]-6-methoxy-4′-trifluoromethyl-biphenyl-3-yl}-acetic acid], the IC50 was < 300 nM.

In the case of `CCOc1ccc(CC(=O)O)cc1-c1ccc(C(F)(F)F)cc1CN1C(=O)O[C@H](c2ccccc2)[C@@H]1C` [Compound 1-14, [6-Ethoxy-2′-((4S,5R)-4-methyl-2-oxo-5-phenyl-oxazolidin-3-ylmethyl)-4′-trifluoromethyl-biphenyl-3-yl]-acetic acid], the IC50 is reported as < 300 nM.

For `C[C@H]1[C@@H](c2ccccc2)OC(=O)N1Cc1cc(C(F)(F)F)ccc1-c1cc(CC(=O)O)ccc1OCC1CC1` [Compound 1-15, [6-Cyclopropylmethoxy-2′-((4S,5R)-4-methyl-2-oxo-5-phenyl-oxazolidin-3-ylmethyl)-4′-trifluoromethyl-biphenyl-3-yl]-acetic acid], the IC50 was < 300 nM.

`C[C@H]1[C@@H](c2ccccc2)OC(=O)N1Cc1cc(C(F)(F)F)ccc1-c1cc(CC(=O)O)ccc1OCC(=O)O` [Compound 1-16, [6-Carboxymethoxy-2′-((4S,5R)-4-methyl-2-oxo-5-phenyl-oxazolidin-3-ylmethyl)-4′-trifluoromethyl-biphenyl-3-yl]-acetic acid] was tested, and the IC50 was 300 to 1000 nM.

For `C[C@H]1[C@@H](c2ccccc2)OC(=O)N1Cc1cc(C(F)(F)F)ccc1-c1cc(CC(=O)O)ccc1OCc1ccccc1` [Compound 1-17, [6-Benzyloxy-2′-((4S,5R)-4-methyl-2-oxo-5-phenyl-oxazolidin-3-ylmethyl)-4′-trifluoromethyl-biphenyl-3-yl]-acetic acid], the IC50 was < 300 nM.

`C[C@H]1[C@@H](c2ccccc2)OC(=O)N1Cc1cc(C(F)(F)F)ccc1-c1cc(CC(=O)O)ccc1OCc1ccc(Cl)cc1` [Compound 1-18, [6-(4-Chloro-benzyloxy)-2′-((4S,5R)-4-methyl-2-oxo-5-phenyl-oxazolidin-3-ylmethyl)-4′-trifluoromethyl-biphenyl-3-yl]-acetic acid] was tested, and the IC50 was < 300 nM.

`C[C@H]1[C@@H](c2ccccc2)OC(=O)N1Cc1cc(C(F)(F)F)ccc1-c1cc(CC(=O)O)ccc1-c1ccccc1` [Compound 1-19, [2″-((4S,5R)-4-Methyl-2-oxo-5-phenyl-oxazolidin-3-ylmethyl)-4″-trifluoromethyl-[1,1′;2′,1″]terphenyl-4′-yl]-acetic acid] was tested, and the IC50 was < 300 nM.

In the case of `C[C@H]1[C@@H](c2ccccc2)OC(=O)N1Cc1cc(C(F)(F)F)ccc1-c1cc(CC(=O)O)ccc1-c1cccnc1` [Compound 1-20, [2′-((4S,5R)-4-Methyl-2-oxo-5-phenyl-oxazolidin-3-ylmethyl)-6-pyridin-3-yl-4′-trifluoromethyl-biphenyl-3-yl]-acetic acid], the IC50 is reported as < 300 nM.

Work on `C[C@H]1[C@@H](c2ccccc2)OC(=O)N1Cc1cc(C(F)(F)F)ccc1-c1cc(CC(=O)O)ccc1-c1cnn(C)c1` [Compound 1-21, [2′-((4S,5R)-4-Methyl-2-oxo-5-phenyl-oxazolidin-3-ylmethyl)-6-(1-methyl-1H-pyrazol-4-yl)-4′-trifluoromethyl-biphenyl-3-yl]-acetic acid] yielded an IC50 of 300 to 1000 nM.

In the case of `COc1ccc(CC(=O)O)cc1-c1ccc(C(F)(F)F)cc1CN1C(=O)NC(C)(c2ccccc2)C1=O` (stereo not shown) [Compound 2-1, [6-Methoxy-2′-(4-methyl-2,5-dioxo-4-phenyl-imidazolidin-1-ylmethyl)-4′-trifluoromethyl-biphenyl-3-yl]-acetic acid], the IC50 is reported as > 1000 nM.

For `COc1ccc(CC(=O)O)cc1-c1ccc(C(F)(F)F)cc1CN1C(=O)N(CC(=O)O)C(C)(c2ccccc2)C1=O` (stereo not shown) [Compound 2-2, [2′-(3-Carboxymethyl-4-methyl-2,5-dioxo-4-phenyl-imidazolidin-1-ylmethyl)-6-methoxy-4′-trifluoromethyl-biphenyl-3-yl]-acetic acid], the IC50 was > 1000 nM.

For `COc1ccc(CC(=O)O)cc1-c1ccc(C(F)(F)F)cc1CN1CCN=C1C` [Compound 3-1, [6-Methoxy-2′-(2-methyl-4,5-dihydro-imidazol-1-ylmethyl)-4′-trifluoromethyl-biphenyl-3-yl]-acetic acid], the IC50 was > 1000 nM.

With `O=C(O)CCn1c2c(c3ccccc31)C[C@H](NS(=O)(=O)c1ccc(F)cc1)CC2` [Ramatroban, reference compound] the IC50 was 300 to 1000 nM.
